Assay results from US11793824B2, “Administration of nicotinamide mononucleotide in the treatment of disease” (Washington University, priority 2013, dated 2023).
Entries after “also recorded” stand apart in the source; their conditions may differ.

Legend:
Assay type in all cases: in vivo, mouse
[1] = Insulin tolerance test in old mice; conditions: 100 and 300 mg/kg groups, body weight-matched, 12-month time point, 17 month-old mice
Experimental: (§1) A 12 month-long NMN administration study using wild-type mice under a regular chow-fed condition was conducted. NMN was administered through drinking water, and two doses of NMN, 100 and 300 mg/kg body weight/day, were tested. […] To assess beneficial and possible adverse effects of NMN, a variety of physiological parameters were periodically monitored, including body weight, body temperature, food and water intake, fed and fasted blood glucose levels, fed and fasted plasma lipid panels, and glucose and insulin tolerance, in NMN-administered and control mice. Blood chemistry, blood cell counts, urine strip test, and other physiological tests including physical activity test were also checked.
(See Methods; Administration of NMN through Drinking Water and Determination of NMN Stability and Toxicity). As illustrated in FIG. 9A-B, insulin tolerance results from body weight-matched mice in the control and the 100 and 300 mg/kg NMN-administered groups at the 12-month time point are presented. Blood glucose levels (FIG. 9A) and percent glucose changes (FIG. 9B) after insulin injection are shown. The results were analyzed with two-way RANOVA and one-way ANOVA. All values are presented as mean±SEM (n=10-15 for each group).

[2] = Tear production, modified Schirmer's test
Experimental: as §1
In this long-term NMN administration study (See Methods; Administration of NMN through Drinking Water and Determination of NMN Stability and Toxicity), tear production was assessed in control and NMN-administered mice with modified Schirmer's test. All values are presented as mean±SEM. **p<0.01.

NSPCs = assay: NSPC pool in the dentate gyrus after long-term NMN in drinking water
Experimental: All tissue sections were and cells incubated in blocking/permeabilization solution containing 10% normal goat serum, 1% BSA, and 0.3% Triton-X in PBS for 45 to 60 min prior to 24 or 48 h of incubation with primary antibodies in 5% normal goat serum and 0.1% Triton-X in PBS at 4° C. at the concentrations listed below. […], Alexa488, or Cy3 conjugated-secondary antibodies diluted in 2% normal goat serum, 1% BSA, and 0.1% Triton-X in PBS were added for 2 h at room temperature. Nuclei were stained with 4,6-diamidino-2-phenylindole (Sigma) for 10 min at room temperature.
Cells were harvested by fixation with 4% paraformaldehyde in PBS (15 min). Mice were anesthetized by i.p. injection of ketamine and xylazine, and perfused transcardially through left ventricle with cold 0.1 M phosphate buffer at pH 7.4 followed by a phosphate-buffered solution of 4% paraformaldehyde (PFA). Brains were postfixed with 4% PFA overnight and placed into 15% sucrose followed by 30% sucrose, frozen, and stored at −80° C. until use. Coronal sections (30 μm) were made by cryostat in a 1 in 8 series and stored at −30° C. in cryoprotectant until use. To remove any endogenous peroxidase activity, all sections were incubated with 3% H2O2 for 10 min. […]
For tissue sections, high-magnification (20×, 0.8DICII or 40× oil 1.3DICII) microscopic imaging was performed using a Zeiss Axioimage.Z1. […] Quantification was performed blinded to genotype on 3-8 tissue sections per animal. Cell densities were estimated by the number of immunoreactive cells divided by the area of the structure, measured with ImageJ. […] Quantification was performed blinded to genotype on 2 to 3 fields of view per sample and treatment, from 3 to 9 independent samples.
The inventors hypothesized that systemic administration of NMN may be able to correct age-associated defects in NSPC functionality. […] Quantification of Ki67+ (H) and Dcx+ (I) cells in the DG per unit area of the DG (n=5). […]

NAMPT cone-CKO mice = assay: ERG rescue in NAMPT cone-CKO mice; conditions: NMN i.p.
Source text: The inventors examined the effect of selectively disrupting NAD biosynthesis within PR. The inventors utilized the cre-lox strategy to generate mice that had NAMPT conditionally deleted from either rods (NAMPT rod-CKO) or cones (NAMPT cone-CKO). The NAMPT fl/fl mice as well as the rhodopsin-cre and cone opsin-cre mice have been previously characterized. Both rod and cone cko mice are generated with normal Mendelian frequencies and are born normal with no observable systemic abnormalities (data not shown). All structural and functional analyses performed in CKO mice are analyzed in comparison to littermate controls. Rods constitute a majority of the PR neurons (97% of all photoreceptors). […] Neurosensory retinal degeneration was associated with secondary atrophy and pallor of the optic nerve (FIG. 29C).
These quantifiable structural and functional changes were associated with decrease in visual acuity in cone-CKO mice (FIG. 30E). Histopathologic analyses confirmed outer nuclear layer degeneration with subsequent multilayer retinal degeneration and cell death in cone-CKO mice similar to the changes seen above for rod-CKO mice. […] NMN treatment had no effect on littermate controls (FIG. 33A-B). […] Furthermore, providing NMN treatment is able to rescue PR neurons and vision.

[3] = NMN in drinking water from 6 to 18 months of age

For NC(=O)c1ccc[n+]([C@@H]2O[C@H](COP(=O)([O-])O)[C@@H](O)[C@H]2O)c1 [NMN, nicotinamide mononucleotide], the “insulin sensitivity (insulin tolerance test)” value [1] was “significantly enhanced insulin sensitivity”, the tear production ([2]; 300 mg/kg group) was “comparable to the maximal tear production through the mouse lifespan” and the tear production ([2]; 18 month-old mice, 100 and 300 mg/kg) was “increased tear production in a dose-dependent manner”. The “Type 1 (radial Nestin+) NSPC population with age” value (NSPCs; 300 mg/kg body weight in drinking water from 6 to 18 months of age) was “improved maintenance; also recorded: able to maintain the NSPC pool”, the “population of newborn neurons (Dcx+) in the DG” value (NSPCs; [3]) was “trended to increase” and the “population of proliferating cells (Ki67+) in the DG” value (NSPCs; [3]) was “remained similar to controls”. The “effect on littermate controls” value (NAMPT cone-CKO mice) was “no effect” and the ERG function (NAMPT cone-CKO mice; vs PBS treated cone-CKO mice) was “improve ERG function”.
